Structures can show the parent of a compound that is named as a salt. Where two headings read alike, the source gives them in different places.
Assays:
Format in all cases: cell-based, human
U-2OS = test: Cell viability analysis, osteosarcoma U-2OS; details: Homo sapiens, 72 h; U2OS; repeated experiment; read-out: The results of antibiotic drug inhibiting cancer cell lines (cell viability analysis), U2OS
[1] = tested on: C-33A (Cervical carcinoma); test: Cell viability analysis, cervical cancer C-33A; details: Homo sapiens, 72 h; C-33A; repeated experiment; read-out: The results of antibiotic drug inhibiting cancer cell lines (cell viability analysis), C-33A
[2] = tested on: PC3 (p53−) (Prostate Adenocarcinoma); test: Cell viability analysis, prostate cancer PC3; details: Homo sapiens, 72 h
[3] = tested on: HepG2 (Hepatocellular Carcinoma); test: Cell viability analysis, hepatic cancer HepG2; details: Homo sapiens, HepG2, 72 h
[4] = tested on: SAS (Tongue squamous cell carcinoma); test: Cell viability analysis, tongue cancer SAS; details: Homo sapiens, 72 h; SAS; repeated experiment; read-out: The results of antibiotic drug inhibiting cancer cell lines (cell viability analysis), SAS
T24 = test: Cell viability analysis, bladder cancer T24; details: Homo sapiens, T-24, 72 h; T24; repeated experiment; read-out: The results of antibiotic drug inhibiting cancer cell lines (cell viability analysis), T24
[5] = tested on: Hep3B (hepatocellular carcinoma); test: Cell viability analysis, hepatic cancer Hep3B; details: Homo sapiens, 72 h; Hep3B; repeated experiment; read-out: The results of antibiotic drug inhibiting cancer cell lines (cell viability analysis), Hep3B
[6] = tested on: HeLa (Cervix Adenocarcinoma); test: Cell viability analysis, cervical cancer HeLa; details: Homo sapiens, HeLa, 72 h, HeLa
[7] = tested on: AGS (Gastric Adenocarcinoma); test: Cell viability analysis, gastric cancer AGS; details: Homo sapiens, 72 h
[8] = tested on: TSGH-8301 (Urinary Bladder Carcinoma); test: Cell viability analysis, bladder cancer TSGH-8301; details: Homo sapiens, 72 h
[9] = tested on: A375 (Amelanotic Melanoma); test: Cell viability analysis, skin cancer A375; details: Homo sapiens, A-375, 72 h
[10] = tested on: MCF7 (Mammary Gland, Adenocarcinoma); test: Cell viability analysis, breast cancer MCF7; details: Homo sapiens, MCF7, 72 h
AsPC-1 = test: Cell viability analysis, pancreatic cancer AsPC-1; details: Homo sapiens, ASPC1, 72 h; AsPC-1; repeated experiment; read-out: The results of antibiotic drug inhibiting cancer cell lines (cell viability analysis), AsPC-1
[11] = tested on: HL-60 (Acute Promyelocytic Leukemia); test: Cell viability analysis, leukemia HL-60; details: Homo sapiens, HL-60, 72 h, drug 10 μM, 72 hours, WST-1, OD450 nm; read-out: cell viability (survival rate), HL-60
NIH: OVCAR-3 = test: Cell viability analysis, ovarian cancer NIH: OVCAR-3; details: Homo sapiens, 72 h; NIH-OVCAR-3; repeated experiment; read-out: The results of antibiotic drug inhibiting cancer cell lines (cell viability analysis), NIH-OVCAR-3
[12] = tested on: MDA-MB-231 (Mammary Gland, Adenocarcinoma); test: Cell viability analysis, breast cancer MDA-MB-231; details: Homo sapiens, MDA-MB-231, 72 h; MDA-MB231; repeated experiment; read-out: The results of antibiotic drug inhibiting cancer cell lines (cell viability analysis), MDA-MB231
cancer cell lines = test: Cell viability analysis (WST-1) on cancer cell lines; details: drug 10 μM, 72 hours, WST-1; Table 3
[13] = tested on: MKN-45 (Gastric Adenocarcinoma); test: Cell viability analysis, gastric cancer MKN-45; details: Homo sapiens, MKN-45, 72 h
[14] = tested on: HI650 (Lung Adenocarcinoma); test: Cell viability analysis, lung cancer HI650; details: Homo sapiens, NCI-H1650, 72 h
[15] = tested on: LoVo (Colorectal Adenocarcinoma); test: Cell viability analysis, colon cancer LoVo; details: Homo sapiens, LoVo, 72 h
BxPC-3 = test: Cell viability analysis, pancreatic cancer BxPC-3; details: Homo sapiens, 72 h; BxPC-3; repeated experiment; read-out: The results of antibiotic drug inhibiting cancer cell lines (cell viability analysis), BxPC-3
[16] = tested on: A549 (Lung Adenocarcinoma); test: Cell viability analysis, lung cancer A549; details: Homo sapiens, A549, 72 h
TOV-21G = test: Cell viability analysis, ovarian cancer TOV-21G; details: Homo sapiens, TOV21G, 72 h; TOV-21G; repeated experiment; read-out: The results of antibiotic drug inhibiting cancer cell lines (cell viability analysis), TOV-21G
[17] = tested on: BCC (basal cell carcinoma); test: Cell viability analysis, skin cancer BCC; details: Homo sapiens, 72 h; BCC; repeated experiment; read-out: The results of antibiotic drug inhibiting cancer cell lines (cell viability analysis), BCC

`CN(C)CCC=C1c2ccccc2CCc2ccccc21` [Amitriptyline HCl] was tested, and the viability at 10 µM (U-2OS) was 68.5%, the viability at 10 µM [1] was 100% and the viability at 10 µM ([2]; PC-3, repeated experiment, read-out: The results of antibiotic drug inhibiting cancer cell lines (cell viability analysis), PC-3) was 99.4%. The viability at 10 µM ([2]; drug 10 μM, 72 hours, WST-1, OD450 nm, read-out: cell viability (survival rate), PC3) was 61.9%, the viability at 10 µM ([3]; HepG2, repeated experiment, read-out: The results of antibiotic drug inhibiting cancer cell lines (cell viability analysis), HepG2) was 106% and the viability at 10 µM ([3]; drug 10 μM, 72 hours, WST-1, OD450 nm, read-out: cell viability (survival rate), HepG2) was 106%. For the same compound, the viability at 10 µM [4] was 67.5%, the viability at 10 µM (T24) was 97.5% and the viability at 10 µM [5] was 124%. The viability at 10 µM ([6]; repeated experiment, read-out: The results of antibiotic drug inhibiting cancer cell lines (cell viability analysis), HeLa) was 111%, the viability at 10 µM ([6]; drug 10 μM, 72 hours, WST-1, OD450 nm, read-out: cell viability (survival rate), HeLa) was 90.6% and the viability at 10 µM ([7]; AGS, repeated experiment, read-out: The results of antibiotic drug inhibiting cancer cell lines (cell viability analysis), AGS) was 146%. For the same compound, the viability at 10 µM ([7]; drug 10 μM, 72 hours, WST-1, OD450 nm, read-out: cell viability (survival rate), AGS) was 61.5%, the viability at 10 µM ([8]; TSGH-8301, repeated experiment, read-out: The results of antibiotic drug inhibiting cancer cell lines (cell viability analysis), TSGH-8301) was 157% and the viability at 10 µM ([8]; drug 10 μM, 72 hours, WST-1, OD450 nm, read-out: cell viability (survival rate), TSGH) was 133%. For the same compound, the viability at 10 µM ([9]; A375, repeated experiment, read-out: The results of antibiotic drug inhibiting cancer cell lines (cell viability analysis), A375) was 94.3%, the viability at 10 µM ([9]; drug 10 μM, 72 hours, WST-1, OD450 nm, read-out: cell viability (survival rate), A375) was 84.8% and the viability at 10 µM ([10]; MCF-7, repeated experiment, read-out: The results of antibiotic drug inhibiting cancer cell lines (cell viability analysis), MCF-7) was 67.7%. It also gave a viability at 10 µM ([10]; drug 10 μM, 72 hours, WST-1, OD450 nm, read-out: cell viability (survival rate), MCF7) of 64.8%, a viability at 10 µM (AsPC-1) of 73.1% and a viability at 10 µM [11] of 81.4%. For the same compound, the viability at 10 µM (NIH: OVCAR-3) was 104%, the viability at 10 µM [12] was 106% and the “inhibition effect on different cancer cell lines” value (cancer cell lines) was “significant inhibition effect”. The viability at 10 µM ([13]; MKN-45, repeated experiment, read-out: The results of antibiotic drug inhibiting cancer cell lines (cell viability analysis), MKN-45) was 135%, the viability at 10 µM ([13]; drug 10 μM, 72 hours, WST-1, OD450 nm, read-out: cell viability (survival rate), MKN-45) was 102% and the viability at 10 µM ([14]; H1650, repeated experiment, read-out: The results of antibiotic drug inhibiting cancer cell lines (cell viability analysis), H1650) was 111%. For the same compound, the viability at 10 µM ([14]; drug 10 μM, 72 hours, WST-1, OD450 nm, read-out: cell viability (survival rate), H1650) was 64.4%, the viability at 10 µM ([15]; read-out: The results of antibiotic drug inhibiting cancer cell lines (cell viability analysis), LoVo, repeated experiment) was 90.5% and the viability at 10 µM ([15]; read-out: cell viability (survival rate), LoVo, drug 10 μM, 72 hours, WST-1, OD450 nm) was 96.5%. It also gave a viability at 10 µM (BxPC-3) of 67.2%, a viability at 10 µM ([16]; A549, repeated experiment, read-out: The results of antibiotic drug inhibiting cancer cell lines (cell viability analysis), A549) of 73.3% and a viability at 10 µM ([16]; drug 10 μM, 72 hours, WST-1, OD450 nm, read-out: cell viability (survival rate), A549) of 69.3%. For the same compound, the viability at 10 µM (TOV-21G) was 118% and the viability at 10 µM [17] was 113%.

From patent US10105357B2, “Indication of antibiotic drugs for preparation of cancer inhibition pharmaceutical composition” (LAUNX BIOMEDICAL CO., LTD., priority 2014, dated 2018)
